Experimental data taken from patent US8354438B2, “Neurological functions” (priority 2001, dated 2013).
“And” between values parts separate entries of the source, which are not always exact repeats. Equal entries are not always repeated.

Key:
[1] = tested on: carnosinase; conditions: compared with the parent compound carnosine; Boldyrev 2000; cited from earlier work
[2] = tested on: animals subject to hyperbaric oxygen; conditions: reported by Bondarenko; cited from earlier work
[3] = tested on: animals; conditions: both decreasing mortality and improving recovery; Stvolinsky and Dobrota 2000; cited from earlier work
[4] = tested on: adult clinical trials; conditions: among 691 cases of adult clinical trials; Matsukura and Tanaka 2000; cited from earlier work
[5] = tested on: children with Autistic Spectrum Disorder; test: 8 week double-blind placebo-controlled carnosine study in children with Autistic Spectrum Disorder (Example 4); type: in vivo, human; conditions: for Fax ratings (week 2 vs. week 6): on carnosine 400 mg twice a day, Mean (SD)
Text: The following protocol was designed to target the purported brain region of dysfunction in ASD, via supplementation with a naturally-occurring amino acid which is believed to act upon frontal lobe systems or GABA receptors. We sought to eliminate the “expectancy effect” of medication augmentation by enrolling children in a study so that both the clinicians and parents were blinded to group assignment.
Children were included for study if they met the following criteria: ages 3-12, prior diagnoses of Autistic Spectrum Disorder (including either Pervasive Developmental Disorder or Autistic Disorder, by DSMIVR). American Psychiatric Association. Diagnostic and Statistical Manual of Mental Disorders, 4th ed. Washington D.C., 1993. […] Children were enrolled in the study irrespective of cognitive ability level.
All children were tested at baseline in the following domains: expressive language (Expressive One Word Picture Vocabulary test, EOWPVT), receptive language (Receptive One Word Picture Vocabulary test, ROWPVT), autism severity ratings (Childhood Autism Rating Scale; CARS, and Gilliam Autism Rating Scales; GARS), and Clinical Global linpresssions (CGI) completed by parents. At baseline and eight-week testing, all children underwent the CARS, GARS, EOWPVT, ROWPVT, and CGI. Schopler, E., Reichler, R. J., Renner, B. R. The Childhood Autism Rating Scale: CARS. Los Angeles, Calif.: Western Psychological Sciences 1988. Gilliam, J. E. The Gilliam Autism Rating Scale: GARS. Austin, Tex.: Pro-Ed Inc. 1995. Gardner, M. F. Receptive One-Word Picture Vocabulary Test: ROWPVT. Novato, Calif.: Academic Therapy Publications 1985. Gardner, M. F. Expressive One-Word Picture Vocabulary Test (Revised): EOWPVT-R. Novato, Calif.: Academeic Therapy Publication 1990. Children were tested with their parents in the room of a pediatric neurology clinic in a room dedicated to assessment. Parents signed informed written consent (approved by the Lake Forest Hospital Institutional Review Board) before being randomly assigned to either active agent or placebo, and reporting of adverse events was explained per office emergency policy. Because of our prior experience with the substance in an open-label format, we were able to caution regarding the following potential adverse events: hyperactivity, excitability
Both placebo and active substance were identical in powdered appearance, without taste or smell. All pills were contained by a gelatin capsule; parents were instructed to mix the powder with either food or drink. Dosage of carnosine was 400 mg by mouth twice a day.
Every two weeks, parents faxed a CGI regarding their child. The CGI was a 5 point rating scale covering the following domains: (1) Socialization, interaction with others during play, (2) Spontaneous, expressive language or vocalizations, (3) Attention span, “focus”/eye contact, alertness level, (4) Agitation and hyperactivity or lethargy, energy level, Petroff, O. A. C. et al., Neurology 2001; 56:709-715. Coordination, body use, gross motor movements, (6) Anxiety, rigidity, preservation, adaptation to change. A score of “0” indicated “No Change”, a score of “5” indicated a “Great improvement.” Parents were not allowed to refer back to faxes from the prior two week period, so that each rating was essentially “blinded” to the week before. An overall baseline CGI was then compared with an ending CGI.
Thirty-one children (21 M, mean age=7.45; range 3.2-12.5) meeting inclusion criteria were enrolled in an 8 week, double-blind placebo-controlled study. Children were entered randomly into one of two groups: Group I (n=17) received a placebo for the first 8 weeks, while Group II (n=14) received the active substance. Children were assessed at Baseline in the following domains: […]

[6] = tested on: rat model genetically predisposed to audiogenic epilepsy; conditions: carnosine injected prior to acoustic stress; Stvolinsky and Dobrota 2000; cited from earlier work
[7] = tested on: children with intractable seizures; test: L-carnosine add-on therapy in children with intractable seizures, EEG and seizure frequency (Example 3); type: in vivo, human; conditions: after 10 weeks at 400 mg p.o. b.i.d.
Text: L-carnosine is an amino acid dipeptide (histidine and alanine), that may indirectly affect spike and wave discharges by altering GABA bioavailability or affecting copper and zinc influx at the cellular level. […] We hypothesized that carnosine ingestion would modulate homocarnosine in the brain, causing spike and wave activity to decrease and seizure control to improve. We gave L-carnosine to four patents as add-on therapy for intractable spike-wave discharge and documented changes in both clinical (overt seizures) and physiological (EEG) status.
Seven children (3 female, 4 male, age range 2-12) met inclusion criteria. All had intractable seizures for at least two years, had failed at least 3 anticonvulsants, had documented, abnormal generalized or secondarily generalized spike-wave, atypical absence, or Lennox-Gastaut Syndrome. All families signed written consent from an IRB approved protocol. All children were evaluated with a Baseline EEG on the same day they were started on 400 mg b.i.d. of L-carnosine. Carnosine from, for example, Alfa Chem in either powder or capsule form. Carnosine may also be obtained from MAYPRO (Purchase, N.Y.), as well as various other suppliers. Post-treatment EEG was undertaken after 10 weeks of L-carnosine therapy. No other concurrent medications were changed. All patients had failed multiple medication treatments prior to the addition of carnosine. These medications included valproic acid, topimirate, benzodiazepines, steroids, carbamazepine, phenytoin, zonisamide, lamotrigine, and phenobarbital.

[8] = tested on: patients with autism, pervasive developmental disorder, brain injury, cerebral palsy and epilepsy; test: Carnosine dietary supplement to improve cognitive functions impaired by neurological disorders (Example 2); type: in vivo, human; conditions: carnosine 200 mg to 2,000 mg per day, orally
Description: It is hypothesized that carnosine may improve cognitive functions of patients suffering from various disorders. These disorders include autism, pervasive developmental disorder, brain injury, cerebral palsy and epilepsy. There are currently no drugs or treatments available whose primary function is to elevate carnosine levels as a treatment for the previously mentioned disorders. Patients afflicted with the above disorders were treated with a dietary supplement of carnosine in dosages of 200 mg to 2,000 mg per day. The carnosine supplement is available in gel capsule form from Alfa Chem (Kings Point, N.Y.).
The carnosine supplement can be administered orally several times daily. The results indicated an increase in cognitive processing speed, an increase in language skills, and improved motor skills. Patients have increased their amount of speech and language and the level of maturity of speech.

[9] = 8-Week on carnosine 400 mg twice a day, n = 14, Mean (SD), vs baseline .01, vs placebo NS
[10] = 8-Week on carnosine 400 mg twice a day, n = 14, Mean (SD), vs baseline NS, vs placebo NS
[11] = Baseline, active carnosine group n = 14, Mean (SD)

Compound: NCCCC(=O)N[C@@H](Cc1cnc[nH]1)C(=O)O [homocarnosine, γ-Aminobutyryl-L-histidine]
- rate of hydrolysis [1]: negligible
- convulsions under hyperbaric oxygen [2]: protects against the convulsions

Compound: β-Alanlyl-L-histidine [carnosine]
- resistance towards ionizing radiation, hypobaric hypoxia, and supercooling [3]: enhances the resistance
- symptomatic side effects [4]: no symptomatic side effects
- CGI ([5]; 8-Week on carnosine 400 mg by mouth twice a day, n = 14, Mean (SD), vs baseline .06, vs placebo NS): 16.39 (4.36)
- GARS [5, 9]: 44.36 (14.94) and 44.35 (14.93)
- GARS Socialization Scale [5, 9]: 13.36 (6.58)
- ROWPVT (age-adjusted) [5, 9]: 47.85 (28.37) and 47.86 (28.37)
- ROWPVT (raw) [5, 9]: 44.64 (26.56)
- GARS Communication Scale ([5]; 8-Week on carnosine 400 mg twice a day, n = 14, Mean (SD), vs baseline .03, vs placebo NS): 18.14 (6.27)
- GARS Behavior Scale ([5]; 8-Week on carnosine 400 mg twice a day, n = 14, Mean (SD), vs baseline .04, vs placebo NS): 12.85 (5.95)
- CARS ([5]; 8-Week on carnosine 400 mg twice a day, n = 14, Mean (SD), vs baseline .07, vs placebo NS): 29.75 (7.53)
- EOWPVT (age-adjusted) [5, 10]: 43.78 (28.22)
- EOWPVT (raw) [5, 10]: 37.28 (25.66)
- CARS [5, 11]: 31.71 (6.55)
- CGI [5, 11]: 14.50 (3.65)
- EOWPVT (age-adjusted) [5, 11]: 40.71 (23.44)
- EOWPVT (raw) [5, 11]: 35.36 (20.87)
- GARS [5, 11]: 55.50 (16.35)
- GARS Behavior Scale [5, 11]: 15.71 (6.65)
- GARS Communication Scale [5, 11]: 21.64 (7.99)
- GARS Socialization Scale [5, 11]: 18.14 (6.30)
- ROWPVT (age-adjusted) [5, 11]: 40.57 (24.55)
- ROWPVT (raw) [5, 11]: 38.00 (23.68)
- side effects reported by parents ([5]; alleviated by decreasing the dose): only sporadic hyperactivity
- discontinuation of the study due to side effects ([5]; carnosine 400 mg twice a day, 8 weeks): Not a single child
- receptive speech, socialization, and behavior in children with autistic spectrum disorders ([5]; supplementation with carnosine, 8 weeks): significantly improve
- Fax ratings (week 2 vs. week 6) ([5]; week 2 (column Baseline)): 2.03 (2.24)
- Fax ratings (week 2 vs. week 6) ([5]; week 6 (column 8-Week), vs week 2 .04): 4.92 (5.69)
- audiogenic seizures [6]: moderation of such seizures
- patients with improved seizure frequency (of 7) [7]: 7 patients
- children with decreased frequency of polyspikes ([7]; 7 children): 2 children
- children with improved background and decreased electrographic slow-spike and wave activity ([7]; 7 children): 2 children
- children with improved secondarily generalized spike-wave activity ([7]; 7 children): 1 child
- children with no significant EEG changes ([7]; 7 children): 2 children
- children with documented improved EEG findings (of 7) ([7]; add-on): 5 children
- patients with reported improvements in global cognition, behavior, and language function (of 7) ([7]; not evaluated formally): 7 patients
- amount of speech and language and level of maturity of speech [8]: increased
- cognitive processing speed [8]: increase
- language skills [8]: increase
- motor skills [8]: improved
- receptive language [8]: improved
